SMILES strings stand for the structures. Bounds are passed on as bounds.

Experiment [1] concerns ^3 H-nifedipine (or ^3 H-nitrendipine) binding, rabbit or guinea pig heart membranes. Description: 3H-Nifedipine binding determinations. To be noted: for A: % max. inhib. (maximum inhibition of specific binding): reference compound nifedipine established as 100%. How it is done:
A. ^3 H-Nifedipine binding determinations:
The determination is carried out on homogenates or on partially-cleaned membranes of rabbit or guinea pig heart. The reaction mixture (0.3 ml) consists of 0.2-0.8 mg of membrane protein, 1 nM of ^3 H-nifedipine (or 0.25 nM of ^3 H-nitrendipine) and various concentrations of the test substances. The incubation lasts 30 minutes at 25° C. or 37° C. and is stopped by dilution with the incubation buffer; a filtration is subsequently carried out. The filter-bound radioactivity is measured with a scintillation counter. Specific binding (i.e. receptor-bound) is defined as the difference between total and unspecific-bound radioactivity. The unspecific binding is determined in the presence of an excess of non-radioactive nifedipine (1 μM).
The activity (potency) of a compound in this test is defined by the IC50 and % maximum inhibition values (% max. inhibition). The IC50 is the substance concentration (in mol/l) which produces a half-maximum inhibition of the specific ^3 H-nifedipine (or ^3 H-nitrendipine) binding. In the table compound A has an IC50 in mol/l, of 3.0.10^-8 which means 3.0×10^-8. The maximum inhibition of the specific binding is given by the % maximum inhibition value; this value is established as 100% for the reference compound nifedipine. Both parameters are extrapolated from a concentration-binding curve.

Experiment [2] concerns KCl contracture of coronary artery strips of dogs (tension-dependent calcium channel). In words: Coronary artery strips of dogs, relaxation of KCl contracture. The format is cell-based, dog. To be noted: Canis lupus familiaris; KCl 84.7 mM, 37° C.; read-out: B: IC50 (half-maximum relaxation of KCl contracture). Here is the method: B. Coronary artery strips of dogs:
In this experiment spiral strips (2-2.5 mm wide and 10 mm long) of coronary arteries of dogs are cut and hung up in an organ chamber under an initial tension of 1.5 g. These strips are pre-incubated for a duration of about 1 to 2 hours in Krebs-Henseleit buffer solution which is gassed with Oxycarbon (a mixture of 95% oxygen and 5% carbon dioxide) at 37° C. The relaxing activity of one of these substances is subsequently tested on a KCl (84.7 mM) contracture by the addition of increasing concentrations of the test substance to the organ chamber. The calcium channel-blocking activity of the test substances can therefore be established, as the KCl contracture occurs exclusively by means of calcium flow through the tension-dependent calcium channel.
The activity of a test substance in this test is given by the IC50 value. This value is defined as the substance concentration (in mol/l) which produces a half-maximum relaxation of a KCl contracture. This value is also extrapolated from the resulting concentration-activity curve.

The test system of another experiment is narcotized dog. Description: Hemodynamic parameters in the narcotized dog. The experiment is classed as in vivo. The text has this:
C. Hemodynamic parameters in the narcotized dog:
The 4 most important measurement parameters (with respective measurement units) of the hemodynamic experiment are: (1) CBF: Coronary Blood Flow (in ml/min)--the velocity of blood flow through the coronary arteries; (2) HR: heart rate (in beats/min)--the heart frequency; (3) BP: blood pressure (in mm Hg); and (4) dp/dt: rate of increase in left ventricular pressure (in mm Hg/sec) as a measurement of the contractility force of the heart. The values are given as the % maximum variation from the initial value (Δ%) and the duration in minutes of this variation (t) per dosage administered.
There is thus obtained not only an overall picture of the activity of the substance, but also an estimation as to the potential selectivity for a specific part of the circulatory system in the entire organism. After the administration of an anesthetic, the dog is intubated and respired artificially. Blood pH, pCO2, pO2 and hemoglobin are measured hourly with a blood-gas analyzer. The blood pressure (systolic and diastolic) is measured with a probe in the aorta abdominalis. The heart frequency is recorded by means of a tachometer, which is disengaged from the pressure pulse. For the other measurements the heart must first be opened in order that a probe can be inserted in the left ventricle (heart chamber) for the pressure measurements (dp/dt). The coronary blood flow is measured with a flowing probe in the left coronary artery (descendens).
This allows the prediction that they are useful as agents in the control or prevention of angina pectoris, ischemia, high blood pressure and migraine.

Take `CCCOCCOC(=O)C1=C(C)NC(C)=C(C(=O)CS(=O)(=O)NC(C)C)C1c1cccc([N+](=O)[O-])c1` (centres unmarked) [F, 1,4-dihydro-5-[(isopropylsulfamoyl)acetyl]-2,6-dimethyl-4-(3-nitrophenyl)nicotinic acid 2-propoxyethyl ester]: in experiment [1], the “A: % max. inhib. (maximum inhibition of specific binding)” value was 99%. The IC50 in experiment [2] is 0.6 nM. In the experiment on narcotized dog (0.03 mg/kg p.o.), the “BP blood pressure, duration of variation (t)” value (from here on “BP blood pressure, duration”) is over 60 min; the “BP blood pressure, maximum variation from initial value (Δ%)” value (from here on “BP blood pressure … (Δ%)”) is listed as -11%; the “CBF coronary blood flow, duration of variation (t)” value (“CBF coronary blood flow, duration” for short) is 120 min; the “CBF coronary blood flow, maximum variation from initial value (Δ%)” value (“CBF coronary blood flow … (Δ%)” below) was found to be 56%. In the experiment with narcotized dog (0.03 mg/kg p.o.), the “HR heart rate, duration of variation (t)” value stood at 16 min; the “HR heart rate, maximum variation from initial value (Δ%)” value (from here on “HR heart rate, maximum variation … (Δ%)”) is given as -5%; the “dp/dt rate of increase in left ventricular pressure, maximum variation from initial value (Δ%)” value (from here on “dp/dt rate of increase … (Δ%)”) came out at 34%; the “dp/dt, duration of variation (t)” value came out at 60 min.
On to `CNS(=O)(=O)CC(=O)C1=C(C)NC(C)=C(C(=O)OC(C)C)C1c1cccc([N+](=O)[O-])c1` (centres unmarked) [B, 1,4-dihydro-2,6-dimethyl-5-[(methylsulfamoyl)acetyl]-4-(3-nitrophenyl)nicotinic acid isopropyl ester], for which the “A: % max. inhib. (maximum inhibition of specific binding)” value in experiment [1] was 94%. The IC50 in experiment [2] is 16 nM. Besides, in the experiment on narcotized dog (0.03 mg/kg p.o.), the “BP blood pressure, duration” value is over 90 min; the “BP blood pressure … (Δ%)” value is -8%; the “CBF coronary blood flow, duration” value is over 90 min; the “CBF coronary blood flow … (Δ%)” value is reported as 120%. In addition, in the experiment on narcotized dog (0.03 mg/kg p.o.), the “HR heart rate, maximum variation … (Δ%)” value came out at 0%; the “dp/dt rate of increase … (Δ%)” value was 10%; the “dp/dt, duration of variation (t)” value is over 90 min.
In the case of `COC(=O)C1=C(C)NC(C)=C(C(=O)OC)C1c1ccccc1[N+](=O)[O-]` [nifedipine, reference compound], the “A: % max. inhib. (maximum inhibition of specific binding)” value in experiment [1] amounted to 100%.
In the case of `CCNS(=O)(=O)CC(=O)C1=C(C)NC(C)=C(C(=O)OC(C)C)C1c1cccc([N+](=O)[O-])c1` (centres unmarked) [A, 5-[(Ethylsulfamoyl)acetyl]-1,4-dihydro-2,6-dimethyl-4-(3-nitrophenyl)nicotinic acid isopropyl ester], the IC50 in experiment [1] (read-out: IC50 (half-maximum inhibition of specific 3H-nifedipine binding), as repeated in the text) stood at 30 nM. Further, the “A: % max. inhib. (maximum inhibition of specific binding)” value in experiment [1] turned out to be 100%. Also, the IC50 in experiment [2] was determined as 6.8 nM. In addition, in the experiment with narcotized dog (0.03 mg/kg p.o.), the “BP blood pressure, duration” value was over 60 min; the “BP blood pressure … (Δ%)” value is on record as -13%; the “CBF coronary blood flow, duration” value was 90 min; the “CBF coronary blood flow … (Δ%)” value worked out at 98%. In the experiment with narcotized dog (0.03 mg/kg p.o.), the “HR heart rate, duration of variation (t)” value turned out to be 60 min; the “HR heart rate, maximum variation … (Δ%)” value is given as -11%; the “dp/dt rate of increase … (Δ%)” value is 37%; the “dp/dt, duration of variation (t)” value amounted to 90 min.
As for `CC1=C(C(=O)CS(=O)(=O)NC(C)C)C(c2cc(Cl)ccc2Cl)C(C(=O)OC(C)C)=C(C)N1` (centres unmarked) [E, 4-(2,5-dichlorophenyl)-1,4-dihydro-5-[(isopropylsulfamoyl)acetyl]-2,6-dimethylnicotinic acid isopropyl ester], the “A: % max. inhib. (maximum inhibition of specific binding)” value in experiment [1] came out at 100%. The IC50 in experiment [2] is 6.6 nM. Also, in the experiment on narcotized dog (0.03 mg/kg p.o.), the “BP blood pressure, duration” value is over 120 min; the “BP blood pressure … (Δ%)” value is recorded as -16%; the “CBF coronary blood flow, duration” value stood at 70 min; the “CBF coronary blood flow … (Δ%)” value came out at 104%. Besides, in the experiment on narcotized dog (0.03 mg/kg p.o.), the “HR heart rate, duration of variation (t)” value was 120 min; the “HR heart rate, maximum variation … (Δ%)” value was -14%; the “dp/dt rate of increase … (Δ%)” value worked out at 65%; the “dp/dt, duration of variation (t)” value amounted to 90 min.
For the molecule `CNS(=O)(=O)CC(=O)C1=C(C)NC(C)=C(C(=O)OCC(F)(F)F)C1c1cccc([N+](=O)[O-])c1` (centres unmarked) [C, 1,4-dihydro-2,6-dimethyl-5-[(methylsulfamoyl)acetyl]-4-(3-nitrophenyl)nicotinic acid 2,2,2-trifluoroethyl ester], in experiment [1], the “A: % max. inhib. (maximum inhibition of specific binding)” value is 100%. Besides, the IC50 in experiment [2] stood at 9.5 nM. In the experiment with narcotized dog (0.1 mg/kg p.o.), the “BP blood pressure, duration” value is over 180 min; the “BP blood pressure … (Δ%)” value was -16%; the “CBF coronary blood flow, duration” value stood at 180 min; the “CBF coronary blood flow … (Δ%)” value is listed as 88%. In the experiment with narcotized dog (0.1 mg/kg p.o.), the “HR heart rate, duration of variation (t)” value was 120 min; the “HR heart rate, maximum variation … (Δ%)” value is “+2%”; the “dp/dt rate of increase … (Δ%)” value came to 33%; the “dp/dt, duration of variation (t)” value turned out to be 180 min.
As to `CC1=C(C(=O)CS(=O)(=O)NC(C)C)[C@H](c2cccc([N+](=O)[O-])c2)C(C(=O)O[C@@H](C)c2ccccc2)=C(C)N1` [G, (S)-1,4-dihydro-5-[(isopropylsulfamoyl)acetyl]-2,6-dimethyl-4-(3-nitrophenyl)nicotinic acid (S)-1-phenylethyl ester], the “A: % max. inhib. (maximum inhibition of specific binding)” value in experiment [1] came to 100%. In experiment [2], the IC50 worked out at 7.4 nM. In addition, in the experiment on narcotized dog (0.03 mg/kg p.o.), the “BP blood pressure, duration” value is over 120 min; the “BP blood pressure … (Δ%)” value is on record as -36%; the “CBF coronary blood flow, duration” value is over 120 min; the “CBF coronary blood flow … (Δ%)” value came out at 57%. For the same molecule, in the experiment with narcotized dog (0.03 mg/kg p.o.), the “HR heart rate, duration of variation (t)” value is over 120 min; the “HR heart rate, maximum variation … (Δ%)” value is -13%; the “dp/dt rate of increase … (Δ%)” value is listed as 29%; the “dp/dt, duration of variation (t)” value was over 120 min.
Regarding `CC1=C(C(=O)CS(=O)(=O)NC(C)C)C(c2cc([N+](=O)[O-])ccc2Cl)C(C(=O)OC(C)C)=C(C)N1` (centres unmarked) [D, 4-(2-chloro-5-nitrophenyl)-1,4-dihydro-5-[(isopropylsulfamoyl)acetyl]-2,6-dimethylnicotinic acid isopropyl ester], the “A: % max. inhib. (maximum inhibition of specific binding)” value in experiment [1] is given as 100%. In experiment [2], the half-maximal inhibitory concentration (IC50) was found to be 0.82 nM. Also, in the experiment on narcotized dog (0.03 mg/kg p.o.), the “BP blood pressure, duration” value is over 60 min; the “BP blood pressure … (Δ%)” value is on record as -9%; the “CBF coronary blood flow, duration” value is over 120 min; the “CBF coronary blood flow … (Δ%)” value is given as 68%. In the experiment on narcotized dog (0.03 mg/kg p.o.), the “HR heart rate, duration of variation (t)” value was found to be 60 min; the “HR heart rate, maximum variation … (Δ%)” value is -5%; the “dp/dt rate of increase … (Δ%)” value stood at 75%; the “dp/dt, duration of variation (t)” value came to 90 min.

For the origin of these results see patent US4742069A, “Sulfonamide containing dihydropyridine derivatives, intermediates and medicinal use” (Hoffmann-La Roche Inc., priority 1984, dated 1988).
